According to patent publication US20240150377A1, “MODULATORS OF CYSTIC FIBROSIS TRANSMEMBRANE CONDUCTANCE REGULATOR” (VERTEX PHARMACEUTICALS INCORPORATED, priority 2020, published 2024):
Where two headings read alike, the source gives them in different places. Values belong to the molecule of their own block, whether it stands above or below them.

Tests used:
[1] = 13-membered ring, DMF
[2] = molecular target: CFTR (Homo sapiens, UniProt P13569); assay: Membrane potential dye, Enteroid Assay A; format: cell-based; conditions: Table 6; for Ent. A Max Activity: chloride transport as % of triple combination control (Enteroid Assay A); for EC50: human enteroid cells, 18-24 hours, acute 10 μM forskolin and 300 nM ivacaftor, read-out: Ent. A EC50
Summary of the method: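 % Activity: chloride transport relative to a 3 μM/3 μM corrector pair plus 300 nM acute potentiator control. Primary human enteroid cells, 18-24 h compound exposure at 37 °C; membrane potential dye (methyl oxonol) fluorescence over 15 min after forskolin (10 μM)/IBMX (100 μM)/Compound III (300 nM) stimulation in chloride-free buffer.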

[3] = amide bond, 13-membered ring, DMF
[4] = molecular target: T1, F508del (Homo sapiens, UniProt P13569, DEL508-508); assay: 3T3 assay: membrane potential optical assay for F508del correction; format: cell-based; conditions: Table 6, F508del NIH 3T3 cells; for Emax: NIH3T3, compared to lumacaftor in combination with acutely added 300 nM Ivacaftor, read-out: 3T3 Max Activity; for EC50: 18-24 hours at 37° C., forskolin, acutely added 300 nM Ivacaftor
T1 construct: expressed in transfected cells
Summary of the method: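 NIH 3T3 mouse fibroblasts stably expressing F508del incubated with corrector compounds across a concentration range for 16-24 hours at 37° C, then loaded with voltage-sensing redistribution dye. Response is FLIPR membrane potential change on forskolin activation with a chloride gradient (chloride-free gluconate bath, HEPES pH 7.4).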

T1 sequence (P13569 with tags, fused parts or gaps DEL508-508): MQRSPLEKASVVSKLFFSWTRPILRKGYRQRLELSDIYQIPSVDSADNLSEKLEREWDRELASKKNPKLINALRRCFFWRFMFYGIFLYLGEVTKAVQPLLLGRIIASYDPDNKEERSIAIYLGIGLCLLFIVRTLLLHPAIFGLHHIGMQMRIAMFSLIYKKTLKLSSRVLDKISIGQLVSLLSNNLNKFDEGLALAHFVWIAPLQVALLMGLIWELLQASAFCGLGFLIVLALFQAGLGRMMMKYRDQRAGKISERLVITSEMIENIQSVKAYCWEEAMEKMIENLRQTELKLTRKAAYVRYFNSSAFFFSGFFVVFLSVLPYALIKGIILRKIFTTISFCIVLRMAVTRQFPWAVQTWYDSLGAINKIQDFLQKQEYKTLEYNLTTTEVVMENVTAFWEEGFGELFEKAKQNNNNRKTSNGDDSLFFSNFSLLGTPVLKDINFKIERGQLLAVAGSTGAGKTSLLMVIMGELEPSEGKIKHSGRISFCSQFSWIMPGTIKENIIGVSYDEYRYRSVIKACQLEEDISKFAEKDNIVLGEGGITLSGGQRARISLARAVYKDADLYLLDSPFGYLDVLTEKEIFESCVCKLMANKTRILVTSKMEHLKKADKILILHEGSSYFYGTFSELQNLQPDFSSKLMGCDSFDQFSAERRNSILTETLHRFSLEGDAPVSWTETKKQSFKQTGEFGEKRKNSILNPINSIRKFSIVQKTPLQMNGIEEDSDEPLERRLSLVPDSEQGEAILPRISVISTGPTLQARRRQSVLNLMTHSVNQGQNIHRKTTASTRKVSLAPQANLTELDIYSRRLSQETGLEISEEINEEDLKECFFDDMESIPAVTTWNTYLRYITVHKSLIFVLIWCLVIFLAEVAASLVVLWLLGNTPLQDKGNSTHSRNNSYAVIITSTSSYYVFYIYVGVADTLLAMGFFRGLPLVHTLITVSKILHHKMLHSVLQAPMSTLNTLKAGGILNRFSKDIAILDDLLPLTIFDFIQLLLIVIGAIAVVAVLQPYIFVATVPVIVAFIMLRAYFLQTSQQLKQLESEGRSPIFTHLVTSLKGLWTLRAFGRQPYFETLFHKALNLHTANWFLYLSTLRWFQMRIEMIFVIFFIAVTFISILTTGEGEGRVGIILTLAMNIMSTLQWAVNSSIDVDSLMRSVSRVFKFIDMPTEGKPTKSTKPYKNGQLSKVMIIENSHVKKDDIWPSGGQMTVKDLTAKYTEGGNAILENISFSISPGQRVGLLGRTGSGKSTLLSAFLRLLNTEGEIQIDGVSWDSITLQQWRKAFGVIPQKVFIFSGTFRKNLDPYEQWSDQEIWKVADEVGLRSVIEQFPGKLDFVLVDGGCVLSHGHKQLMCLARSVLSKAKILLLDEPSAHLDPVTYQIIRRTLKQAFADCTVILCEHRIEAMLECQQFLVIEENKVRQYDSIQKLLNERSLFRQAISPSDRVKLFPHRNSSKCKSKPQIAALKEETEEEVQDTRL
Sequence of CFTR (P13569 with tags, fused parts or gaps DEL508-508): as above

Structure (SMILES): CCC(C)(C)CC1COc2cc(-c3c(C)cccc3C)nc(n2)NS(=O)(=O)c2cccc(c2)C(=O)N1Cc1cncc(N(C)C2CCC2)n1 (stereo not shown)
- ring closure, isolated yield ([1]; from CCC(C)(C)CC(COc1cc(-c2c(C)cccc2C)nc(NS(=O)(=O)c2cccc(C(=O)O)c2)n1)NCc1cncc(N(C)C2CCC2)n1, amide bond, CDMT/NMM, 19.5 mM, 16.2 h): 65%

Structure (SMILES): Cc1cccc(C)c1-c1cc2nc(n1)NS(=O)(=O)c1cccc(c1)C(=O)N(Cc1cncc(N(C)C3CCC3)n1)C1(CCC(C)(C)C1)CO2 (stereo not shown)
- ring closure, isolated yield ([1]; from Cc1cccc(C)c1-c1cc(OCC2(NCc3cncc(N(C)C4CCC4)n3)CCC(C)(C)C2)nc(NS(=O)(=O)c2cccc(C(=O)O)c2)n1, amide bond, CDMT/NMM, 18.1 mM, 120.0 h): 36%

Structure (SMILES): Cc1cccc(C)c1-c1cc2nc(n1)NS(=O)(=O)c1cccc(c1)C(=O)N(Cc1cncc(Cl)n1)[C@H](COC1CC1)CO2
- ring closure, isolated yield ([1]; from Cc1cccc(C)c1-c1cc(OC[C@@H](COC2CC2)NCc2cncc(Cl)n2)nc(NS(=O)(=O)c2cccc(C(=O)O)c2)n1, amide bond, CDMT/NMM, 12.9 mM, 21.0 h): 97%

Structure (SMILES): Cc1cccc(C)c1-c1cc2nc(n1)NS(=O)(=O)c1cccc(c1)C(=O)N(Cc1cncc(Cl)n1)[C@H](CC1CCCCC1)CO2
- ring closure, isolated yield ([1]; from Cc1cccc(C)c1-c1cc(OC[C@@H](CC2CCCCC2)NCc2cncc(Cl)n2)nc(NS(=O)(=O)c2cccc(C(=O)O)c2)n1, amide bond, CDMT/NMM, 20.4 mM, 16.2 h): 73%

Structure (SMILES): COCN1c2nc(cc(-c3c(C)cccc3C)n2)OC[C@@H](CC(C)(C)C)NC(=O)c2cccc(c2)S1(=O)=O
- ring closure, isolated yield ([1]; from COCN(c1nc(OC[C@H](N)CC(C)(C)C)cc(-c2c(C)cccc2C)n1)S(=O)(=O)c1cccc(C(=O)O)c1, amide bond, HATU/DIEA, 107.6 mM, 0.33 h): 39%

Structure (SMILES): Cc1cccc(C)c1-c1cc2nc(n1)NS(=O)(=O)c1cccc(c1)C(=O)N(Cc1ccc3cc(I)n(C)c3n1)[C@H](CC(C)(C)C)CO2
- ring closure, isolated yield ([1]; from Cc1cccc(C)c1-c1cc(OC[C@@H](CC(C)(C)C)NCc2ccc3cc(I)n(C)c3n2)nc(NS(=O)(=O)c2cccc(C(=O)O)c2)n1, amide bond, 2-chloro-1-methylpyridinium iodide/DIEA, 41.5 mM, 16.0 h): 72%

Structure (SMILES): Cc1cccc(C)c1-c1cc2nc(n1)NS(=O)(=O)c1cccc(c1)C(=O)N(Cc1cncc(N3CCCC[C@H]3C)n1)C(CCC(C)(C)F)CO2 (stereo partly shown)
- ring closure, isolated yield ([1]; from Cc1cccc(C)c1-c1cc(OCC(CCC(C)(C)F)NCc2cncc(N3CCCC[C@H]3C)n2)nc(NS(=O)(=O)c2cccc(C(=O)O)c2)n1, amide bond, CDMT/NMM, 19.8 mM, 16.0 h): 54%

Structure (SMILES): Cc1cccc(C)c1-c1cc2nc(n1)NS(=O)(=O)c1cccc(c1)C(=O)N(Cc1cncc(Cl)n1)[C@H](CC(C)(C)C)CO2
- ring closure, isolated yield ([1]; from Cc1cccc(C)c1-c1cc(OC[C@@H](CC(C)(C)C)NCc2cncc(Cl)n2)nc(NS(=O)(=O)c2cccc(C(=O)O)c2)n1, amide bond, CDMT/NMM, 12.4 mM, 25.0 °C, 16.5 h): 56%

Structure (SMILES): Cc1cccc(C)c1-c1cc2nc(n1)NS(=O)(=O)c1cccc(c1)CN(C(=O)OC(C)(C)C)[C@H](CC(C)C)CO2
- ring closure, isolated yield ([1]; from Cc1cccc(C)c1-c1cc(OC[C@@H](CC(C)C)NC(=O)OC(C)(C)C)nc(NS(=O)(=O)c2cccc(COS(C)(=O)=O)c2)n1, amine bond, NaH, 3.92 mM, 25.0 °C): 50%

- Ent. A Max Activity [2]: +++ (+++ is >60%)
- EC50 [2]: < 1000 nM
- Emax [4]: > 60%
- EC50 [4]: < 1000 nM
Structure (SMILES): Cc1cccc(C)c1-c1cc2nc(n1)NS(=O)(=O)c1cccc(c1)C(=O)N(CCC1(C(F)(F)F)CC1)[C@H](CC(C)C)CO2 [Compound 37, (11R)-6-(2,6-Dimethylphenyl)-11-(2-methylpropyl)-12-{2-[1-(trifluoromethyl)cyclopropyl]ethyl}-9-oxa-2λ^6-thia-3,5,12,19-tetraazatricyclo[12.3.1.14,8]nonadeca-1(17),4(19),5,7,14(18),15-hexaene-2,2,13-trione]
- ring closure, yield after HPLC ([3]; from Cc1cccc(C)c1-c1cc(OC[C@@H](CC(C)C)NCCC2(C(F)(F)F)CC2)nc(NS(=O)(=O)c2cccc(C(=O)O)c2)n1, HATU/DIEA, 25.2 mM, 25.0 °C, 1.0 h): 37%

Structure (SMILES): Cc1cccc(C)c1-c1cc2nc(n1)NS(=O)(=O)c1cccc(c1)C(=O)N(CC1CC3(CCN(C(=O)OC(C)(C)C)CC3)C1)[C@H](CC(C)C)CO2
- ring closure, isolated yield ([1]; from Cc1cccc(C)c1-c1cc(OC[C@@H](CC(C)C)NCC2CC3(CCN(C(=O)OC(C)(C)C)CC3)C2)nc(NS(=O)(=O)c2cccc(C(=O)O)c2)n1, amide bond, HATU/DIEA, 9.3 mM, 25.0 °C, 2.0 h, 2 steps): 33%

- Ent. A Max Activity [2]: +++ (+++ is >60%)
- EC50 [2]: < 1000 nM
- Emax [4]: > 60%
- EC50 [4]: < 1000 nM
Structure (SMILES): Cc1cccc(C)c1-c1cc2nc(n1)NS(=O)(=O)c1cccc(c1)C(=O)N(CC(C)C)CCO2 [Compound 4, 6-(2,6-Dimethylphenyl)-12-isobutyl-2,2-dioxo-9-oxa-2λ^6-thia-3,5,12,19-tetrazatricyclo[12.3.1.14,8]nonadeca-1(18),4(19),5,7,14,16-hexaen-13-one]
- ring closure, yield after HPLC ([3]; from Cc1cccc(C)c1-c1cc(OCCNCC(C)C)nc(NS(=O)(=O)c2cccc(C(=O)O)c2)n1, HATU/TEA, 91.6 mM, 0.5 h): 48%

Structure (SMILES): Cc1cccc(C)c1-c1cc2nc(n1)NS(=O)(=O)c1cccc(c1)C(=O)N(CCC1(C(F)(F)F)CC1)[C@@H]1CN(C(=O)OC(C)(C)C)C[C@H]1O2
- ring closure, isolated yield ([1]; from Cc1cccc(C)c1-c1cc(O[C@@H]2CN(C(=O)OC(C)(C)C)C[C@H]2NCCC2(C(F)(F)F)CC2)nc(NS(=O)(=O)c2cccc(C(=O)O)c2)n1, amide bond, COMU/DIEA, 10.6 mM, 72.0 h): 92%

Structure (SMILES): Cc1cccc(C)c1-c1cc2nc(n1)NS(=O)(=O)c1cccc(c1)C(=O)N(Cc1ccc3c(I)cn(C)c3n1)[C@H](CC(C)(C)C)CO2
- ring closure, isolated yield ([1]; from Cc1cccc(C)c1-c1cc(OC[C@@H](CC(C)(C)C)NCc2ccc3c(I)cn(C)c3n2)nc(NS(=O)(=O)c2cccc(C(=O)O)c2)n1, amide bond, 2-chloro-1-methylpyridinium iodide/DIEA, 35.1 mM, 16.0 h): 61%

Structure (SMILES): Cc1cccc(C)c1-c1cc2nc(n1)NS(=O)(=O)c1cccc(c1)C(=O)N(Cc1cccc(NC(=O)OC(C)(C)C)n1)[C@H](CC(C)(C)C)CO2
- ring closure, isolated yield ([1]; from Cc1cccc(C)c1-c1cc(OC[C@@H](CC(C)(C)C)NCc2cccc(NC(=O)OC(C)(C)C)n2)nc(NS(=O)(=O)c2cccc(C(=O)O)c2)n1, amide bond, HATU/DIEA, 16.0 h, 2 steps): 31%

Structure (SMILES): Cc1cccc(C)c1-c1cc2nc(n1)NS(=O)(=O)c1cccc(c1)C(=O)N(CCCO[Si](C)(C)C(C)(C)C)[C@H](CC(C)C)CO2
- ring closure, isolated yield ([1]; from Cc1cccc(C)c1-c1cc(OC[C@@H](CC(C)C)NCCCO[Si](C)(C)C(C)(C)C)nc(NS(=O)(=O)c2cccc(C(=O)O)c2)n1, amide bond, COMU/DIEA, 19.9 mM, 22.0 h): 43%

Structure (SMILES): Cc1cccc(C)c1-c1cc2nc(n1)NS(=O)(=O)c1cccc(c1)C(=O)N(CCC1CCN(C(=O)OC(C)(C)C)CC1)[C@H](CC(C)C)CO2
- ring closure, isolated yield ([1]; from Cc1cccc(C)c1-c1cc(OC[C@@H](CC(C)C)NCCC2CCN(C(=O)OC(C)(C)C)CC2)nc(NS(=O)(=O)c2cccc(C(=O)O)c2)n1, amide bond, HATU/TEA, 125.0 mM, 25.0 °C, 1.0 h, 2 steps): 94%
